Assay results taken from patent US8987309B2, “Compounds, pharmaceutical compositions and methods of use of 2-aryl pyridylazoles” (The Translational Genomics Research Institute, priority 2009, dated 2015).
“And” between values parts separate entries of the source, which are not always exact repeats. Identical values can stand only once.

Experiments:
H460 = assay: IC50 in tumor cell lines (H460); format: cell-based; conditions: Table 1; lung tumor cell line H460
Experimental: (§1) Cytotoxicity Assays. Cytotoxicity assays in the mechanism of action studies were performed according to Mosmann (1983), wherein the activity of mitochondrial reductases were measured using 3-(4,5-dimethylthiozol-3-yl)-2,5-diphenyltetrozolium bromide dye. In brief, cells were seeded in 96-well plates and incubated for various times at 37° C. Inhibition of cell growth was measured by adding 3-(4,5-dimethylthiozol-3-yl)-2,5-diphenyltetrozolium bromide dye, and after an additional 4 h of incubation at 37° C., the 96-well plates were centrifuged, and the culture supernatant was removed. DMSO was added to each well to solubilize the formazan crystals, and the optical density was read at 540 nm on a Quant Spectrophotometer (BioTek Instruments, Winooski, Vt.). Cell growth inhibition data are expressed as percentage of survival compared with untreated cells. The IC50 is defined as the drug concentration required to produce 50% growth inhibition. Results are mean S.E.M. (n 3).

[1] = tested on: BxPC3 DPC-4(+/+) and BxPC3 DPC-4(−/−) cells; assay: Cytotoxicity (96-h MTT) in isogenic BxPC3 cell lines; format: cell-based, Human
Experimental: Cell lines and Culture Conditions. Human pancreatic cancer cell lines MiaPaCa-2 (Yunis et al., 1977), Panc-1 (Lieber et al., 1975), and BxPC3 (Tan et al., 1986) were purchased from the American Type Culture Collection (Manassas, Va.) and cultured in a humidified incubator at 37° C., 5% CO2, in RPMI 1640 medium (CellGro, Manassas, Va.) supplemented with 10% heat-inactivated bovine calf serum, 2 mM L-glutamine, 100 U/ml penicillin, and 100 µg/ml streptomycin (Invitrogen, Carlsbad, Calif.). MiaPaCa-2 (CRL-1420) is an adherent epithelial human pancreatic cancer cell line with a doubling time of approximately 40 h (Yunis et al., 1977). Panc-1 (CRL-1469) is an undifferentiated human pancreatic epithelial cell line with a doubling time of approximately 52 h (Lieber et al., 1975). The BxPC3 cell line DPC-4(−/−) and its isogenic restored wild-type DPC-4(+/+) cell line were developed and cultured as described previously (Wang et al., 2006). In brief, a DPC-4-expressing construct (pMSCVneoDPC-4) was created by amplifying full-length cDNA of DPC-4 using reverse transcriptase-PCR and subcloning into the multiple cloning site of a retroviral vector (pMSCVneo). The DPC-4-expressing construct was cotransfected into the BxPC3 DPC-4(−/−) cells using a packaging cell line, resulting in a cell line that constitutively expresses DPC-4. The expression of DPC-4 was confirmed by Western blotting (Wang et al., 2006).
as §1
Mean±S.E.M., n=3. […] Mean±S.E.M., n=3. […] Mean tumor burden is shown.

PC3 = assay: IC50 in tumor cell lines (PC3); format: cell-based; conditions: Table 1; prostate tumor cell line PC3
Experimental: as §1

A549 = assay: IC50 in tumor cell lines (A549); format: cell-based; conditions: Table 1; lung tumor cell line A549
Experimental: as §1

TrkB = TrkB (Homo sapiens, UniProt Q16620); assay: Initial kinase screening (Amphora), TrkB; format: biochemical; design: assay run by Amphora Discovery Corporation (Durham, N.C.); conditions: 10 μM compound
TrkB, sequence (Q16620 32-822): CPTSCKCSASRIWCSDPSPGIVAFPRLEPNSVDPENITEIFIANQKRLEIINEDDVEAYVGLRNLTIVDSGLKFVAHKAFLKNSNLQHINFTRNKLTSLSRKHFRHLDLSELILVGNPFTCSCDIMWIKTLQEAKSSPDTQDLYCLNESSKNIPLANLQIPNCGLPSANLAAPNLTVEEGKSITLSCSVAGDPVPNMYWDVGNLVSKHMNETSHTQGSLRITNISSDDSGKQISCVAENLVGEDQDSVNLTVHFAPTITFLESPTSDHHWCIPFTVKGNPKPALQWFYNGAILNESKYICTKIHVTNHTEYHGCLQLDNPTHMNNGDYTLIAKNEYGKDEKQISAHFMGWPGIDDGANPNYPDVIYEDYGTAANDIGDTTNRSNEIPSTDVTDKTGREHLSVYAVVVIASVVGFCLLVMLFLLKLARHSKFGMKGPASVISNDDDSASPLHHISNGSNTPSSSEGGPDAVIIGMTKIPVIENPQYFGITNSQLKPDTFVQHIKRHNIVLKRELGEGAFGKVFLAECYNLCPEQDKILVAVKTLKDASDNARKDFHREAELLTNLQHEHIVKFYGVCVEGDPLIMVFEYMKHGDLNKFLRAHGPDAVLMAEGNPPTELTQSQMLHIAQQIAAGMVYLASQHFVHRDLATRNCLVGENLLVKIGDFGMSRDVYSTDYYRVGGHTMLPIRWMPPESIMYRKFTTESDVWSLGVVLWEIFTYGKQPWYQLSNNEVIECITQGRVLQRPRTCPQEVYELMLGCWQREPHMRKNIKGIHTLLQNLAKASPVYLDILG
Experimental: (§2) Kinase Screening. Initial kinase screening was performed by Amphora Discovery Corporation (Durham, N.C.).

PIM-1 = PIM-1 (Homo sapiens, UniProt P11309); assay: Initial kinase screening (Amphora), PIM-1; format: biochemical; design: assay run by Amphora Discovery Corporation (Durham, N.C.); conditions: 10 μM compound
PIM-1, sequence (P11309 whole entry): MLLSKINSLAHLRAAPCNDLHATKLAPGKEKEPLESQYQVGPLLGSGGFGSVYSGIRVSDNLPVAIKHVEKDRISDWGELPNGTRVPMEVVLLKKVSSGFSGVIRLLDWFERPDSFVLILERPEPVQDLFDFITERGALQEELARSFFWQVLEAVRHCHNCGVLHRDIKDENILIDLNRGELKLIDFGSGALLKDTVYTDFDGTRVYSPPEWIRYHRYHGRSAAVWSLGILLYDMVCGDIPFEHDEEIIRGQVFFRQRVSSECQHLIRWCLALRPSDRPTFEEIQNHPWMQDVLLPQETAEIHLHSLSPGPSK
Experimental: as §2

DU145 = assay: IC50 in tumor cell lines (DU145); format: cell-based; conditions: Table 1; prostate tumor cell line DU145
Experimental: as §1

PDGFRβ = molecular target: T1, PDGFRβ (Homo sapiens, UniProt P09619); assay: Initial kinase screening (Amphora), PDGFRβ; format: biochemical; conditions: 10 μM compound
T1 construct: assay run by Amphora Discovery Corporation (Durham, N.C.)
T1 sequence (P09619 33-1106, species assumed): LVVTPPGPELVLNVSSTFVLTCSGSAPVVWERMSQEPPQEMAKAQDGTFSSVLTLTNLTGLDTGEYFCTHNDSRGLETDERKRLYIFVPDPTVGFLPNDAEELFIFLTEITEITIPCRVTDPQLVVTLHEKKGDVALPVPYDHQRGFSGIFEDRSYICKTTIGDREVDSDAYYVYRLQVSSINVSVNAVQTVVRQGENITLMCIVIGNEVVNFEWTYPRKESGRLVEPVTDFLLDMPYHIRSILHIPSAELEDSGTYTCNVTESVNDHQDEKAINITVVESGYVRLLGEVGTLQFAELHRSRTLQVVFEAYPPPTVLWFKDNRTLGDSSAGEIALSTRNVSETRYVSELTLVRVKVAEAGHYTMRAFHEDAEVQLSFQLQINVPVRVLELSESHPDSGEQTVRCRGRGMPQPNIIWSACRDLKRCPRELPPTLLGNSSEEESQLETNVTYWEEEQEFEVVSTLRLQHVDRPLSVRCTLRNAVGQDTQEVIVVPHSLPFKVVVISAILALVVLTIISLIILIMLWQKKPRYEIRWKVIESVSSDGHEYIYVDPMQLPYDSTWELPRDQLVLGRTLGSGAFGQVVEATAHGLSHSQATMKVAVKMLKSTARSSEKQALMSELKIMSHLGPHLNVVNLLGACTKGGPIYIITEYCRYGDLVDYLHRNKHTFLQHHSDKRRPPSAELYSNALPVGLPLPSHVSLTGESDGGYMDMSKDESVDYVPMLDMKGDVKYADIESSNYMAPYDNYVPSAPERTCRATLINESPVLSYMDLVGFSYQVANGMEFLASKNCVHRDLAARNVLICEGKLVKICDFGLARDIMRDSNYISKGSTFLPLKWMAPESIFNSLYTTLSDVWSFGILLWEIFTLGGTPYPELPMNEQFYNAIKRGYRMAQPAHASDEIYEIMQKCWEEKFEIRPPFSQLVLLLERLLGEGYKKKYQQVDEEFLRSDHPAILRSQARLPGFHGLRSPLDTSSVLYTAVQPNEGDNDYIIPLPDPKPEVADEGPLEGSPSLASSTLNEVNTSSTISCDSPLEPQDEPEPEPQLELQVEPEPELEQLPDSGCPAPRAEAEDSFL
Experimental: as §2

PDGFRα = molecular target: T2, PDGFRα (Homo sapiens, UniProt P16234); assay: Initial kinase screening (Amphora), PDGFRα; format: biochemical; conditions: 10 μM compound
T2 construct: assay run by Amphora Discovery Corporation (Durham, N.C.)
T2 sequence (P16234 24-1089, species assumed): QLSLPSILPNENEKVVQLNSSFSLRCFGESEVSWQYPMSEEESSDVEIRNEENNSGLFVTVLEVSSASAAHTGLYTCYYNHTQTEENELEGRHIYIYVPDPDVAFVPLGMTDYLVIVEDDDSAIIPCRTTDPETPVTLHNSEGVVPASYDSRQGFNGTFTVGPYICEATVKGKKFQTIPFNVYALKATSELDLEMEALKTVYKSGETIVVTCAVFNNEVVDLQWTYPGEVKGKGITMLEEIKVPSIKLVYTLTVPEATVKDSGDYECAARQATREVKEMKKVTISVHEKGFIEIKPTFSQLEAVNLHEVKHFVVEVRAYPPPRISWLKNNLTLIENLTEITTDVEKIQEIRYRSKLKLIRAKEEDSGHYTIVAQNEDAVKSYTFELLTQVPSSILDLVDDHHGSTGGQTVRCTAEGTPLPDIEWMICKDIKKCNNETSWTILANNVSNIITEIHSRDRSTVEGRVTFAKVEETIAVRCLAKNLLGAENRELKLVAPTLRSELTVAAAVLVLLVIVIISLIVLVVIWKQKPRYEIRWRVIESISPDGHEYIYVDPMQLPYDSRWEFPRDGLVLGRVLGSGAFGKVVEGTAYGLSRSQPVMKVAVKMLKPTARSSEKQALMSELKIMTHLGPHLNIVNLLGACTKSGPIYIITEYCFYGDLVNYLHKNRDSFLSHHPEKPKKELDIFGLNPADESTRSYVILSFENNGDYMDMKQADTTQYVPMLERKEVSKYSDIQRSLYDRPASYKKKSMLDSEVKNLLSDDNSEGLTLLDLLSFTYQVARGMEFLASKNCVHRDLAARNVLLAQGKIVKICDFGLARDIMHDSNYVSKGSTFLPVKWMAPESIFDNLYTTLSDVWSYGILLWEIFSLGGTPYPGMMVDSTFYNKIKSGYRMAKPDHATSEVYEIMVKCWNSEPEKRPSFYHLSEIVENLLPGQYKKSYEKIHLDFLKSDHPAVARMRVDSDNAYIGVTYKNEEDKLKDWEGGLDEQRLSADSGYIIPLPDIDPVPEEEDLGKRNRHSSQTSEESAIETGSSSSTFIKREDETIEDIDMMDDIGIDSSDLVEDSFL
Experimental: as §2

CDK2/cyclin A = molecular target: T3, CDK2/cyclin A (Homo sapiens, UniProt P24941); assay: Initial kinase screening (Amphora), CDK2/cyclin A; format: biochemical; conditions: 10 μM compound
T3 construct: assay run by Amphora Discovery Corporation (Durham, N.C.)
Experimental: as §2

Solubility (statement) = format: physicochemical
48 protein kinases = assay: Initial kinase screening (Amphora), panel of 48 protein kinases; format: biochemical; conditions: 10 μM compound
Experimental: as §2

SMILES	IC50 (H460) [nM]	potency against BxPC3 cell lines (in words) [1]	IC50 (PC3) [nM]	IC50 (A549) [nM]	inhibition of TrkB (TrkB) [%]	inhibition of PIM-1 (PIM-1) [%]	IC50 (DU145) [nM]	inhibition of PDGFRβ (PDGFRβ) [%]	inhibition of PDGFRα (PDGFRα) [%]	inhibition of CDK2/cyclin A (CDK2/cyclin A) [%]	solubility (in words) (Solubility (statement))	selectivity index ([1]; ratio of the IC50 in BxPC3 DPC-4(+/+) to BxPC3 DPC-4(−/−) cells)	inhibition of any protein kinases (panel, in words) (48 protein kinases)
COc1ccc(-c2cnc(-c3ccncc3-c3ccccc3)o2)cc1 [DPC043]	50	retained potency	9.9	33	~50	~50	20						
COc1ccc(-c2cnc(-c3ccccc3-c3ccccc3)o2)cc1 [DPC-026]		retained high potency						43	59				
COc1ccc(-c2cnc(-c3cccc4c3-c3ccccc3C4=O)o2)cc1 [UA-62784, reference compound]		high potency								57	lack of solubility	2 and 1.9	no significant (>50%) inhibition
